Results from US20100311729A1, “Substituted imidazopyridazines and pyrrolopyrimidines as lipid kinase inhibitors” (priority 2007, published 2010).
pIC50: −log10 of the molar value.

Columns and labels:
Assay type in all cases: biochemical
PI3K delta = target: T1, PI3K delta (Homo sapiens, UniProt O00329); assay: PI3 kinase assay (Kinase-Glo luminescence), PI3K delta; settings: Enzymatic Data; read-out: PI3K delta IC50 [umol]
T1 construct: for the full-length p110-d subunit are generated and fused by overlapping PCR; His tag (C); made in house; host or cells: baculovirus; Tn5 (Trichoplusia ni) or TiniPro insect cells
T1 sequence (O00329 with tags, fused parts or gaps limits assumed): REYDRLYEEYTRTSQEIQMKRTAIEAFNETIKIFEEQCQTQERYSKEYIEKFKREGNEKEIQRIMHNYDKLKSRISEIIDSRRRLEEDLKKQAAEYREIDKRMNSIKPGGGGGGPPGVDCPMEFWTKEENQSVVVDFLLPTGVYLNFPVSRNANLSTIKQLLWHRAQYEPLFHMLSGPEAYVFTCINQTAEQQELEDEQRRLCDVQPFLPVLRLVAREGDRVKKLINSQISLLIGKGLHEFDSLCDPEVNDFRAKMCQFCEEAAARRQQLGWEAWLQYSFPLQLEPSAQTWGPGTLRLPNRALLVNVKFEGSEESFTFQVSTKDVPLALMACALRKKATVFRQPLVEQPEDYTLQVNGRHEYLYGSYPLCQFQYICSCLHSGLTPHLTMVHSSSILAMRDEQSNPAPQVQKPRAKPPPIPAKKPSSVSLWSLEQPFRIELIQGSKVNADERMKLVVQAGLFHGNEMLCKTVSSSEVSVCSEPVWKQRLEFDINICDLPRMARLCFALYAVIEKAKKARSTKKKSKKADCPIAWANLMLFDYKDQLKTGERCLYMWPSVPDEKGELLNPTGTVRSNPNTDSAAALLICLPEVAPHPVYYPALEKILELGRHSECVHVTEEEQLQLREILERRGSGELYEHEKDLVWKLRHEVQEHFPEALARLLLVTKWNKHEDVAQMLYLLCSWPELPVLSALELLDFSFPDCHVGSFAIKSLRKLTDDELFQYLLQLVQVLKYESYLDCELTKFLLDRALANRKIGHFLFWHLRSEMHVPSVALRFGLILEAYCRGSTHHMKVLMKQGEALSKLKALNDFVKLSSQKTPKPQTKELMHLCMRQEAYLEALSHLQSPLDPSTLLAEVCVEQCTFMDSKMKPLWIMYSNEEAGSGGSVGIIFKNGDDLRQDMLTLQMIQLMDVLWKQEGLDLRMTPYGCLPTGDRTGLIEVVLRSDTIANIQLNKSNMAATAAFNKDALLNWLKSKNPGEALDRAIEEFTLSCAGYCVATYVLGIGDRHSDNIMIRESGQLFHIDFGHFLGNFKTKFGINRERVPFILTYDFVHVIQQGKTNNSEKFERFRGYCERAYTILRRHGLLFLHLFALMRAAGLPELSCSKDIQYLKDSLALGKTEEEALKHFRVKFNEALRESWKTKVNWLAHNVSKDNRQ
How it was run: (§1)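 Recombinant PI3K constructs (alfa 10 nM, delta 10 nM, gamma 150 nM) with 1 μM ATP and 10 μg/mL phosphatidylinositol in Tris pH 7.5, MgCl2, NaCl, CHAPS, DTT; 60 min (alfa, delta) or 120 min (gamma) at room temperature. ATP depletion read by Kinase-Glo luminescence; IC50 from 4-parameter logistic fit over 8 concentrations.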

PI3K beta = target: T2, PI3K beta (Homo sapiens, UniProt P42338); assay: PI3 kinase assay (Kinase-Glo luminescence), PI3K beta; settings: Enzymatic Data; read-out: PI3K beta IC50 [umol]
T2 construct: for the full-length p110-b subunit are generated and fused by overlapping PCR; His tag (C); made in house; host or cells: baculovirus; Tn5 (Trichoplusia ni) or TiniPro insect cells
T2 sequence (P42338 with tags, fused parts or gaps limits assumed): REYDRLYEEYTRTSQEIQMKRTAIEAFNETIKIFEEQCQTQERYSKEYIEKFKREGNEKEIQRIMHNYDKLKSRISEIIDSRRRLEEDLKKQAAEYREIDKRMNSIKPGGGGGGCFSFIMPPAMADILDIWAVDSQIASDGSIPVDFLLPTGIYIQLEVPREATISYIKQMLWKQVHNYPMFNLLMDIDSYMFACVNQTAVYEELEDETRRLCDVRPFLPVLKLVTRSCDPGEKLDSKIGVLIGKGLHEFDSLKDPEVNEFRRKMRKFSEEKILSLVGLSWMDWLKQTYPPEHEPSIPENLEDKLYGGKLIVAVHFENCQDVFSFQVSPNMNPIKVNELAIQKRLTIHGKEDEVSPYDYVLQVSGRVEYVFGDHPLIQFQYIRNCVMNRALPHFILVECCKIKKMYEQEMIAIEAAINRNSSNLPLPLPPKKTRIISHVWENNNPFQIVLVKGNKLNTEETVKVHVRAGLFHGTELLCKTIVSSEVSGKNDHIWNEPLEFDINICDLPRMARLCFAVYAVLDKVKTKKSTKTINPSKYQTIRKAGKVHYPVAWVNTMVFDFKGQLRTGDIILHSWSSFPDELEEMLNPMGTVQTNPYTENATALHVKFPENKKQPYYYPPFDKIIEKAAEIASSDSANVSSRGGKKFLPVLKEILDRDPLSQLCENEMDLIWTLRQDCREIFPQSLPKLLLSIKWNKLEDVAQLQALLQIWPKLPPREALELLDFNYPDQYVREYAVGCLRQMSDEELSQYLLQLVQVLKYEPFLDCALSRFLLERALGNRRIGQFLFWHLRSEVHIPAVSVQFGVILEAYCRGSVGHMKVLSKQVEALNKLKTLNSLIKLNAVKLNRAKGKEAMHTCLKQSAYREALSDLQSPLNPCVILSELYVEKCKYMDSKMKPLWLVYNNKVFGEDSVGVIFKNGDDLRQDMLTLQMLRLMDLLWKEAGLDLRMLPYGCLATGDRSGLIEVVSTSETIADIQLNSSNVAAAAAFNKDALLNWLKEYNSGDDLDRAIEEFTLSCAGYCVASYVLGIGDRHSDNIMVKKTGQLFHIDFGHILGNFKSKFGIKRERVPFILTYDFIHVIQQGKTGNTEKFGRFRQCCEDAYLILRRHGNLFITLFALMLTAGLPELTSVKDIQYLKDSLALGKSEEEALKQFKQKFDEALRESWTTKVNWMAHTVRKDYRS
How it was run: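 PI3Kβ (25 nM, BV-949) with 10 μg/mL phosphatidylinositol in Tris pH 7.5/MgCl2/NaCl/CHAPS/DTT buffer; reaction started with 1 μM ATP, 60 min at room temperature. ATP depletion read by Kinase-Glo luminescence; 8-point dilutions, IC50 by four-parameter logistic fit.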

PI3K gamma = target: T3, PI3K gamma (Homo sapiens, UniProt P48736); assay: PI3 kinase assay (Kinase-Glo luminescence), PI3K gamma; settings: Enzymatic Data; read-out: PI3K gamma IC50 [umol]
T3 construct: PI3Kγ BV-950 p110g(D144aa)-C-Term His Tag; His tag (C); made in house; host or cells: construct from the Roger Williams lab (MRC LMB) in pVL1393; baculovirus; Tn5 (Trichoplusia ni) or TiniPro insect cells
T3 sequence (P48736 144-1102 limits assumed): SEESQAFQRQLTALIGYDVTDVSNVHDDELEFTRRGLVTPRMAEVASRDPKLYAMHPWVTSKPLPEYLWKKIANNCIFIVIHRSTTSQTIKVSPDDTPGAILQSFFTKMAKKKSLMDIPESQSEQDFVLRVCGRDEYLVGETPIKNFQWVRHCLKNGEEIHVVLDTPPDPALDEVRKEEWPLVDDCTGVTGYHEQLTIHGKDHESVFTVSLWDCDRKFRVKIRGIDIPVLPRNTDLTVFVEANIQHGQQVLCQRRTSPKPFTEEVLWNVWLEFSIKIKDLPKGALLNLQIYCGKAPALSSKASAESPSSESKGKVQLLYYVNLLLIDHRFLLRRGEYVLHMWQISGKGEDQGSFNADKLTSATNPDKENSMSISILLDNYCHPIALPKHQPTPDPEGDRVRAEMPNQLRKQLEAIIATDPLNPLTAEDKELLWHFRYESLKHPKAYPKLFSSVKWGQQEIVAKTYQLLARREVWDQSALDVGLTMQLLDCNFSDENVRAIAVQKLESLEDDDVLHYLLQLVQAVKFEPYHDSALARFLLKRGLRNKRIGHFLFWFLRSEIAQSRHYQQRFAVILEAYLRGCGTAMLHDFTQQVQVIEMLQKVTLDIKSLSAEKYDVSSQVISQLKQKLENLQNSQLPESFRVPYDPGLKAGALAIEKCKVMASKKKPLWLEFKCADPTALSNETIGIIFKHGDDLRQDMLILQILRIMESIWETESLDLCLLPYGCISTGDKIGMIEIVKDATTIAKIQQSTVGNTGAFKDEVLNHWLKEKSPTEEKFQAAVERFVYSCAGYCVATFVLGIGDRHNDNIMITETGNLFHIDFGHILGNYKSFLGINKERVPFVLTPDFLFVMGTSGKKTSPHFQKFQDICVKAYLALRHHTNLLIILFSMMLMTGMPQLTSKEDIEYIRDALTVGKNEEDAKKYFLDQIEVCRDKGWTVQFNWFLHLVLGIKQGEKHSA
How it was run: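 Kinase-Glo luminescence assay with 1 μM ATP and 10 μg/mL phosphatidylinositol (final), reaction started by ATP addition. IC50 from 4-parameter logistic fit of percent inhibition at 8 compound concentrations (usually 10 down to 0.003 […]).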

PI3K alfa = target: T4, PI3K alfa (Homo sapiens, UniProt P42336); assay: PI3 kinase assay (Kinase-Glo luminescence), PI3K alfa; settings: Enzymatic Data; read-out: PI3K alfa IC50 [umol]
T4 construct: for the p110-a subunit (with a deletion of the first 20 amino acids); His tag (C); made in house; host or cells: baculovirus; Tn5 (Trichoplusia ni) or TiniPro insect cells
T4 sequence (P42336 with tags, fused parts or gaps limits assumed): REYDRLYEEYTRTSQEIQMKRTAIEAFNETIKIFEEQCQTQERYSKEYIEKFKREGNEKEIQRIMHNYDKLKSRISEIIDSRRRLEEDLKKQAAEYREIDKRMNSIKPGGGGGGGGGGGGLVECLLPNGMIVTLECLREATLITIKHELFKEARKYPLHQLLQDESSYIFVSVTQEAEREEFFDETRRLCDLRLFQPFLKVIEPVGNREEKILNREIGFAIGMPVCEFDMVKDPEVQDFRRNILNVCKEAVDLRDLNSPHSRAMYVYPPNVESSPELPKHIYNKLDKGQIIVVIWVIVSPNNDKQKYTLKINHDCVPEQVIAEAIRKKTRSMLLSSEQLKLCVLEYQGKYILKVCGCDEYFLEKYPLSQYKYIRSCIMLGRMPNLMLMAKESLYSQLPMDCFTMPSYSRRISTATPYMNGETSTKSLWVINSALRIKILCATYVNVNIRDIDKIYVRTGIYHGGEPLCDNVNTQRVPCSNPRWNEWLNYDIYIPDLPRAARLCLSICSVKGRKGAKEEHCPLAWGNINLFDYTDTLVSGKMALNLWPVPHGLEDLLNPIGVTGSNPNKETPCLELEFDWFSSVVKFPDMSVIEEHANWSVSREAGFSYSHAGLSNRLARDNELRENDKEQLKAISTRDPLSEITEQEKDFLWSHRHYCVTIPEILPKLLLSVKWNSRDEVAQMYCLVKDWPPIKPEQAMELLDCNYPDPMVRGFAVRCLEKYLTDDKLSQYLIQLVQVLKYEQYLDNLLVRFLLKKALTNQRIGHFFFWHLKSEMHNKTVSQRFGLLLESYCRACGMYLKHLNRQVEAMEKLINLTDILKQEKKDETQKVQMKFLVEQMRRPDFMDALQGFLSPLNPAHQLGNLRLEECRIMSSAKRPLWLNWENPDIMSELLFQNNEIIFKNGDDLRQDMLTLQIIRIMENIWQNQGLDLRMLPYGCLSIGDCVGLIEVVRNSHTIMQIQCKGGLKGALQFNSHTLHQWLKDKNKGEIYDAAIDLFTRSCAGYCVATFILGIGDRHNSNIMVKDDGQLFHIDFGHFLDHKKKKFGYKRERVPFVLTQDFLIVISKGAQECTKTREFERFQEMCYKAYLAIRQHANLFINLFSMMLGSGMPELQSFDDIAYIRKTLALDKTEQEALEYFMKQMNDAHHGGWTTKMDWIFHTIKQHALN
How it was run: as §1

pIC50 (PI3K delta) | pIC50 (PI3K beta) | pIC50 (PI3K gamma) | pIC50 (PI3K alfa) | SMILES
6.31 | 5.21 | < 5.04 | 6.10 | c1cc2cc(-c3cnc4ccc(-c5ccc6c(c5)OCO6)nn34)cnc2[nH]1 [Example 178, 6-Benzo [1,3] dioxol-5-yl-3-(1H-pyrrolo [2,3-b]pyridin-5-yl)-imidazo [1,2-b] pyridazine]
6.92 | 5.53 | 5.66 | 7.55 | O=C1CCCN1CCOc1ccc(-c2ccc3ncc(-c4cnc5[nH]ccc5c4)n3n2)cc1 [Example 98, 1-(2-{4-[3-(1H-Pyrrolo[2,3-b]pyridin-5-yl)-imidazo [1,2-b]pyridazin-6-yl]-phenoxy}-ethyl)-pyrrolidin-2-one]
7.57 | 6.87 | 6.15 | 7.43 | Nc1ncc(-c2ccc3ncc(-c4ccc5c(cnn5CCCN5CCOCC5)c4)n3n2)cc1C(F)(F)F [Example 140, 5-{3-[1-(3-Morpholin-4-yl-propyl)-1H-indazol-5-yl]-imidazo [1,2-b]pyridazin-6-yl}-3-trifluoro-methyl-pyridin-2-ylamine]
6.39 | 6.28 | 5.07 | 6.33 | NCCCOc1ccc(-c2cnc3ccc(-c4cnc(N)c(C(F)(F)F)c4)nn23)cc1OC(F)(F)F [Example 43, 5-{3-[4-(3-Amino-propoxy)-3-trifluoro-methoxy-phenyl]-imidazo[1,2-b]pyri-dazin-6-yl}-3-trifluoro-methyl-pyridin-2-ylamine]
7.14 | 7.27 | 5.95 | 6.96 | COc1cc(-c2cnc3ccc(-c4cnc(N)c(C(F)(F)F)c4)nn23)ccc1OCCCN [Example 37, 5-{3-[4-(3-Amino-propoxy)-3-methoxy-phenyl]-imidazo[1,2-b]pyridazin-6-yl}-3-trifluoro-methyl-pyridin-2-ylamine]
6.48 | 5.67 | 5.32 | 6.59 | COc1cc(-c2cnc3ccc(-c4cnc(N)c(C(F)(F)F)c4)nn23)ccc1OCCCNC(=O)OC(C)(C)C [Example 36, (3-{4-[6-(6-Amino-5-trifluoro-methyl-pyridin-3-yl)-imidazo [1,2-b]pyridazin-3-yl]-2-methoxy-phenoxy}-propyl)-carbamic acid tert-butyl ester]
7.42 | 6.29 | 6.03 | 7.92 | Nc1ncc(-c2ccc3ncc(-c4ccc(C(=O)N5CCN(CCN6CCOCC6)CC5)cc4)n3n2)cc1C(F)(F)F [Example 128, {4-[6-(6-Amino-5-trifluoro-methyl-pyridin-3-yl)-imidazo [1,2-b]pyridazin-3-yl]-phenyl}-[4-(2-morpholin-4-yl-ethyl)-piperazin-1-yl]-methanone]
6.00 | 5.66 | 5.56 | 6.78 | COC(=O)NCCCOc1ccc(-c2ccc3ncc(-c4cnc(N)c(C(F)(F)F)c4)n3n2)cc1OC [Example 50, (3-{4-[3-(6-Amino-5-trifluoromethyl-pyridin-3-yl)-imidazo[1,2-b]pyridazin-6yl]-2-methoxy-phenoxy}-propyl)-carbamic acid methyl ester]
6.21 | 5.95 | 5.59 | 6.72 | COc1cccc(-c2ccc3ncc(-c4cnc(N)c(C(F)(F)F)c4)n3n2)c1 [Example 77, 5-[6-(3-Methoxy-phenyl)-imidazo [1,2-b]pyridazin-3-yl]-3-trifluoro-methyl-pyridin-2-ylamine]
6.05 | 5.86 | 5.22 | 7.04 | COc1cc(-c2ccc3ncc(-c4cnc(N)c(C(F)(F)F)c4)n3n2)ccc1OCCCNC(=O)C(C)C [Example 51]
6.82 | 6.29 | 5.16 | 7.01 | Nc1ncc(-c2ccc3ncc(-c4ccc(C(=O)N5CCN(CCO)CC5)cc4)n3n2)cc1C(F)(F)F [Example 145]
7.85 | 7.14 | 6.40 | 8.10 | Nc1ncc(-c2ccc3ncc(-c4ccc(C(=O)NCCn5ccnc5)cc4F)n3n2)cc1C(F)(F)F [Example 156, 4-[6-(6-Amino-5-trifluoro-methyl-pyridin-3-yl)-imidazo [1,2-b]pyridazin-3-yl]-3-fluoro-N-(2-imidazol-1-yl-ethyl)-benzamide]
7.54 | 6.80 | 6.28 | 7.74 | Nc1ncc(-c2ccc3ncc(-c4ccc(S(=O)(=O)NCCN5CCOCC5)cc4)n3n2)cc1C(F)(F)F [Example 124, 4-[6-(6-Amino-5-trifluoro-methyl-pyridin-3-yl)-imidazo [1,2-b]pyridazin-3-yl]-N-(2-morpholin-4-yl-ethyl)-benzene-sulfonamide]
6.74 | 6.75 | 7.41 | 6.82 | NCCCOc1ccc(-c2ccc3ncc(-c4cnc(N)c(C(F)(F)F)c4)n3n2)cc1OC(F)(F)F [Example 63, 5-{6-[4-(3-Amino-propoxy)-3-trifluoro-methoxy-phenyl]-imidazo [1,2-b]pyridazin-3-yl}-3-trifluoro-methyl-pyridin-2-ylamine]
7.60 | 6.41 | 6.12 | 7.80 | COc1cc(-c2cnc3ccc(-c4cnc(N)c(C(F)(F)F)c4)nn23)ccc1C(=O)N1CCN(c2ccccn2)CC1 [Example 120, {4-[6-(6-Amino-5-trifluoro-methyl-pyridin-3-yl)-imidazo [1,2-b]pyridazin-3-yl]-2-methoxy-phenyl}-(4-pyridin-2-yl-piperazin-1-yl)-methanone]
7.89 | 7.40 | 6.31 | 8.05 | Nc1ncc(-c2ccc3ncc(-c4ccc(C(=O)NCCCN5CCOCC5)cc4F)n3n2)cc1C(F)(F)F [Example 152, 4-[6-(6-Amino-5-trifluoro-methyl-pyridin-3-yl)-imidazo [1,2-b]pyridazin-3-yl]-3-fluoro-N-(3-morpholin-4-yl-propyl)-benzamide]
8.00 | 7.21 | 6.39 | 8.22 | COc1cc(-c2cnc3ccc(-c4cnc(N)c(C(F)(F)F)c4)nn23)ccc1C(=O)O [Example 109, 4-[6-(6-Amino-5-trifluoromethyl-pyridin-3-yl)-imidazo [1,2-b]pyridazin-3-yl]-2-methoxy-benzoic acid]
6.42 | 5.47 | 5.99 | 7.64 | CC(C)C(=O)NCCCOc1ccc(-c2ccc3ncc(-c4cnc(N)c(C(F)(F)F)c4)n3n2)cc1 [Example 57, N-(3-{4-[3-(6-Amino-5-trifluoro-methyl-pyridin-3-yl)-imidazo [1,2-b]pyridazin-6-yl]-phenoxy}-propyl)-isobutyr-amide]
6.84 | 6.14 | 5.88 | 6.99 | COc1ccc(-c2ccc3ncc(-c4ccc(N)nc4)n3n2)cc1OC [Example 34, 5-[6-(3,4-Dimethoxy-phenyl)-imidazo [1,2-b]pyridazin-3-yl]-pyridin-2-ylamine]
6.37 | 5.12 | < 5.04 | 6.02 | COc1cc(-c2ccc3ncc(-c4ccc(S(=O)(=O)CCN5CCOCC5)cc4)n3n2)ccc1OCCN1CCCC1=O [Example 111, 1-[2-(2-Methoxy-4-{3-[4-(2-morpholin-4-yl-ethane-sulfonyl)-phenyl]-imidazo [1,2-b]pyridazin-6-yl}-phenoxy)-ethyl]-pyrrolidin-2-one]
8.00 | 6.66 | 6.35 | 8.05 | COc1cc(-c2cnc3ccc(-c4cnc(N)c(C(F)(F)F)c4)nn23)ccc1C(=O)N1CCN(Cc2cccnc2)CC1 [Example 117, {4-[6-(6-Amino-5-trifluoro-methyl-pyridin-3-yl)-imidazo [1,2-b]pyridazin-3-yl]-2-methoxy-phenyl}-(4-pyridin-3-ylmethyl-piperazin-1-yl)-methanone]
7.82 | 7.09 | 6.23 | 8.05 | Nc1ncc(-c2ccc3ncc(-c4ccc(C(=O)NCCN5CCOCC5)c(F)c4)n3n2)cc1C(F)(F)F [Example 99, 4-[6-(6-Amino-5-trifluoro-methyl-pyridin-3-yl)-imidazo [1,2-b]pyridazin-3-yl]-2-fluoro-N-(2-morpholin-4-yl-ethyl)-benzamide]
